Measured values published in patent publication US20060002911A1, “Association between a ppar ligand and an antioxidant agent and use thereof for treating obesity” (priority 2002, published 2006).

Conditions: ob/ob mice, intraperitoneal route once a day for 14 days
Experimental: Male C57 Black 6 ob/ob mice from 8 to 12 weeks old were used. […] After being weighed, the mice were treated with rosiglitazone (antidiabetic agent) on its own or in association with coenzyme Q10. […] In addition, the solution was pre-heated before injection. The mice were weighed every day and the weight obtained after 14 days of treatment was recorded.

Compound: CN(CCOc1ccc(CC2SC(=O)NC2=O)cc1)c1ccccn1 (centres unmarked) [rosiglitazone]
- increase in the weight of the mice: greater than or equal to 5 grams
- increase in weight relative to initial weight (more than initial weight): about 10%
